# Measured values: patent EP2057188B1 (priority 2006, dated 2008)
# Read-outs that look alike come from different tables or passages of the source. Ends that are not written are not given here.
# Key:
# [1] = IVGTT duration of action assay, single SC injection; assay type: in vivo, rat
# Protocol: In the typical IVGTT assays the test sample was administered by IV infusion. The IV infusion of sample was initiated at t = -30min and continued through t = 90. IV glucose was given at t = 0. To determine a duration of action using the IVGTT assay, the sample was injected SC as a single injection at one time point indicated (e.g., t = -240, -120, -60 or -30) prior to administration of glucose. IV glucose was given at t = 0.
# [2] = assay type: in vivo, NIH/Swiss mice
# Protocol: Gavage (1.5g/kg) was given at t=0. Sample was taken at t=30 min.
# [3] = biological target: T1, human GIP receptor (Homo sapiens, UniProt P48546); assay: biochemical; settings: read-out: %Inh 10nM
# [4] = test system: cardiomyocyte Gs- and Gi-coupled receptors; assay: cAMP assay in neonatal cardiomyocytes; assay type: cell-based, rat
# Protocol: Activation of cardiomyocyte Gs- and Gi-coupled receptors was determined as a measure of cAMP production.
# Neonatal cardiomyocytes were isolated using a commercially available system. […] Sprague Dawley neonatal rats (1-2 days old) were decapitated and the beating heart dissected out into digestion buffer (Cellutron D1 buffer) to dissociate cells. […] The resuspended cells incubated in buffer (Cellutron D3 buffer) for sufficient time to allow optimal dispersion and minimize the need for pipetting to break up clumps. Cells released from the first 2 digestions were discarded since a significant portion of these is red blood cells. Resuspended cells were filtered and allowed to pre-plate for 1 hour on plastic in an incubator in NS media (Cellutron, NJ) in order to remove fibroblasts. After 1 hour of pre-plating, floating cells are removed and the flask rinsed with NS media. The floating cells and the cells in the rinse media were combined and counted. Residual red blood cells, which are smaller that the cardiac myocytes, were not counted.
# At Day 1, the NS media was replaced with fresh NS media.
# Dose response was determined.
# For Gs assays the positive control was 10uM forskolin and negative control was buffer. For Gi assays the positive control was buffer and the negative control was 10uM forskolin.
# [5] = cited from earlier work; for EC(50): inhibition of gastric emptying, subcutaneous
# [6] = biological target: T1, human GIP receptor
# [7] = Body composition in DIO mice; assay type: in vivo, C57BL/6J mice; settings: summary of properties
# Description: An exemplary assay can be one that involves utilization of a diet-induced obese (DIO) mouse model for metabolic disease. […] During the study, the mice can continue to eat their high-fat diet. Water can be provided ad libitum throughout the study.
# DIO mice can be implanted with subcutaneous (SC) intrascapular osmotic pumps to deliver either vehicle (50% dimethylsulfoxide (DMSO) in water) or a compound of the invention. […] Body weights and food intake can be measured over regular intervals throughout the study periods. Respiratory quotient (RQ, defined as CO2 production ÷ O2 consumption) and metabolic rate can be determined using whole-animal indirect calorimetry (Oxymax, Columbus Instruments, Columbus, OH). The mice can be euthanized by isoflurane overdose, and an index of adiposity (bilateral epididymal fat pad weight) measured. Moreover, prior to determination of epididymal weight, body composition (lean mass, fat mass) for each mouse can be analyzed using a Dual Energy X-ray Absorptiometry (DEXA) instrument per manufacturer's instructions (Lunar Piximus, GE Imaging System).
# [8] = assay type: in vivo, C57BL/6 mice; settings: for body weight change in diet-induced-obese mice: infused via osmotic pump for 2 weeks, high-fat diet
# [9] = for acute food intake: IP at t=0, consumed at t=30, 60, 120 min
# [10] = Glucose in rats (summary table); assay type: in vivo; settings: summary of properties
# [11] = assay type: in vivo, rats; set-up: AUC Change in Insulin Pre IVGTT / AUC Change in Insulin Post IVGTT: unit not given beside the values; settings: for insulin levels prior to the glucose challenge / insulinotropic response to an intravenous glucose challenge: 100 pmol/kg/min infusion dose in rats
# [12] = Circulatory system effects in conscious rats by telemetry; assay type: in vivo, Harlan Sprague Dawley rats
# [13] = assay type: in vivo, db/db mice; settings: Figure 4; GIP at a 10 fold higher dose
# Protocol: Peptide was injected IP at t=0 immediately following baseline sample into 2-hour fasted db/db mice.
# [14] = Calcium lowering (GIP hybrids, Figure 23B); assay type: in vivo; settings: summary of properties
# Protocol: (§1) In Figure 13B bars represent mean +/- sd. Peptide was injected IP at t = -5 minutes into 4-hour fasted NIH/Swiss female mice. Gavage (1.5g/kg) was given at t = 0. […] In Figure 17 points represent mean +/- sem. […] Samples were taken at t=60, t=120 and t=180.
# [15] = assay type: in vivo, NIH/Swiss mice; remark: listed apart in the source
# Protocol: In Figure 3A, bars represent mean ± sd, n=6-10. […] Gavage (1.5g/kg) was given at t=0. Sample was taken at t=30 min. […] In Figure 3B, points represent mean ± sem, n=8-15.
# as §1
# [16] = Gastric emptying (GIP hybrids, Figure 23A); assay type: in vivo; settings: summary of properties
# Protocol: as §1
# [17] = biological target: human GIP receptor; settings: read-out: GIP RBA; GIP receptor binding; RIN where stated; unit nM printed for these values
# [18] = cAMP production, experiment of Figures 18A/18B
# [19] = cardiomyocyte Gs-coupled receptor activation, three independent experiments
# [20] = 80 nmol/kg, remote intravenous dosing
# [21] = insulin levels at 0-30 minutes as AUC, rat
# T1 sequence (P48546 22-466 limits assumed): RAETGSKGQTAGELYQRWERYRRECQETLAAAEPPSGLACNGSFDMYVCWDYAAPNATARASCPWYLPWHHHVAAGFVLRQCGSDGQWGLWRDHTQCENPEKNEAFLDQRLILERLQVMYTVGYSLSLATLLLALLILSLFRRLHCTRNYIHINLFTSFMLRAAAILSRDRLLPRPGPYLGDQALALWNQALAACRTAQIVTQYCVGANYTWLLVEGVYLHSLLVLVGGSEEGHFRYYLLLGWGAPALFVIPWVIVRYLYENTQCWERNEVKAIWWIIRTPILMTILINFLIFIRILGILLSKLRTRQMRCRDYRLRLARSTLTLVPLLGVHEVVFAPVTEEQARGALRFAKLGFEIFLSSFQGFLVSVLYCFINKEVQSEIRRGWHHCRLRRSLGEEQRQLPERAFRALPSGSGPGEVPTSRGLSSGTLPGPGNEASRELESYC
compound,measurement,setting,value
CC[C@H](C)[C@H](NC(=O)[C@H](CO)NC(=O)[C@H](Cc1ccc(O)cc1)NC(=O)[C@H](CC(=O)O)NC(=O)[C@H](CO)NC(=O)[C@@H](NC(=O)[C@H](Cc1ccccc1)NC(=O)[C@@H](NC(=O)CNC(=O)[C@H](CCC(=O)O)NC(=O)[C@@H](C)NC(=O)[C@@H](N)Cc1ccc(O)cc1)[C@@H](C)O)[C@@H](C)CC)C(=O)N[C@@H](C)C(=O)N[C@@H](CCSC)C(=O)N[C@@H](CC(=O)O)C(=O)N[C@@H](CCCCN)C(=O)N[C@H](C(=O)N[C@@H](Cc1c[nH]cn1)C(=O)N[C@@H](CCC(N)=O)C(=O)N[C@@H](CCC(N)=O)C(=O)N[C@@H](CC(=O)O)C(=O)N[C@@H](Cc1ccccc1)C(=O)N[C@H](C(=O)N[C@@H](CC(N)=O)C(=O)N[C@@H](Cc1c[nH]c2ccccc12)C(=O)N[C@@H](CC(C)C)C(=O)N[C@@H](CC(C)C)C(=O)N[C@@H](C)C(=O)N[C@@H](CCC(N)=O)C(=O)N[C@@H](CCCCN)C(=O)N1CCC[C@H]1C(=O)N[C@@H](CCCCN)C(=O)N[C@@H](CCCCN)C(=O)N[C@@H](C)C(=O)N[C@@H](CCCNC(=N)N)C(=O)N[C@@H](Cc1ccc(O)cc1)C(=O)N[C@@H](CO)C(N)=O)C(C)C)[C@@H](C)CC [0601 GIP48 56],Duration In The Rat IVGTT Assay,"[1]; compared with 0601GIP3794 (794), @ -120 min",<794@-120 min
same,Basal Glucose Lowering at 80 nmol/Kg,[2]; AUC240,"-3%, AUC240"
CC[C@H](C)[C@H](NC(=O)[C@H](CO)NC(=O)[C@H](Cc1ccc(O)cc1)NC(=O)[C@H](CC(=O)O)NC(=O)[C@H](CO)NC(=O)[C@@H](NC(=O)[C@H](Cc1ccccc1)NC(=O)[C@@H](NC(=O)CNC(=O)[C@H](CC(=O)O)NC(=O)[C@H](C)NC(=O)[C@@H](N)Cc1ccc(O)cc1)[C@@H](C)O)[C@@H](C)CC)C(=O)N[C@@H](C)C(=O)N[C@@H](CCSC)C(=O)N[C@@H](CC(=O)O)C(=O)N[C@@H](CCCCN)C(=O)N[C@H](C(=O)N[C@@H](Cc1c[nH]cn1)C(=O)N[C@@H](CCC(N)=O)C(=O)N[C@@H](CCC(N)=O)C(=O)N[C@@H](CC(=O)O)C(=O)N[C@@H](Cc1ccccc1)C(=O)N[C@H](C(=O)N[C@@H](CC(N)=O)C(=O)N[C@@H](Cc1c[nH]c2ccccc12)C(=O)N[C@@H](CC(C)C)C(=O)N[C@@H](CC(C)C)C(=O)N[C@@H](C)C(=O)N[C@@H](CCC(N)=O)C(=O)N[C@@H](CCCCN)C(=O)N1CCC[C@H]1C(=O)N[C@@H](CCCCN)C(=O)N[C@@H](CCCCN)C(=O)N[C@H](C(=O)N[C@@H](CCCNC(=N)N)C(=O)N[C@@H](Cc1ccc(O)cc1)C(=O)N[C@@H](CO)C(N)=O)[C@@H](C)CC)C(C)C)[C@@H](C)CC [Compound 0601GIP4390],inhibition at 0.01 µM,[3],90.3%
HAEGTFTSDVSSYLEGQAAKEFIAWLVKGR-NH2 [GLP-1],cAMP activity in cardiomyocytes,[4]; data not shown,very low to no significant activity
same,EC(50),[5]; conscious rats ~200g,1.82 µg
same,EC(50),[5]; conscious rats,2.76 nmol/kg
HGEGTLISDYSIAMDKIHQQDFVNWLLAQKPKKIRYS-NH2 [0601 GIP48 43],"(%Inh 10nm,GIP-LF Assay)",[6],3(%Inh 10nM)
YAEGTFISDYSIAMDKIHQQDFVNWLLAQKGKKNDWKHNITQ-OH [GIP],Body Comp (mDIO),[7],No effect on lean mass
same,BWt (mDIO),"[8]; DIO mice, summary of properties",not active
same,body weight change in diet-induced-obese mice,[8],no effect on body weight change
same,acute food intake,[9],did not acutely inhibit food intake
same,Food Intake,[9]; summary of properties,not active
same,Glucose rats,[10],not active
same,EC(50),[4]; [18],9.1 nM
same,EC(50),[4]; [19],15.6 nM
same,insulin levels prior to the glucose challenge,[11],significant rise in insulin levels
same,insulinotropic response to an intravenous glucose challenge,[11],significant enhancement of the insulinotropic response
same,dP/dt (inotropic effect),[12]; [20],positive inotropic effect
same,heart rate,[12]; [20],chronotropic (heart rate elevating) effect
same,mean arterial pressure,[12]; [20],no effect
same,Heart Rate (rat),"[12]; rat, summary of properties",increases
same,MAP. (rat),"[12]; rat, summary of properties",not active
same,glucose lowering in a diabetic mouse model,[13],modest and wanes over time
same,inhibition of gastric emptying,[5]; at doses of 100µg,weakly active or inactive
same,Glucose mice,"[2]; mice, summary of properties",weak
same,iCa,[14],not active
same,OGTT,[15]; summary of properties,decreases
same,Gastric Emptying,[16],not active
YSDGTFISDYSIAMDKlHQQDFVNWLLAQKPKKIRYS-NH2 [Compound 0601GIP4386],IC50,[17],156 nM
YaEGTFISDYSIAMDKIHQQDFVNWLLAQKPSSGAPPPS-NH2 [Compound 0601GIP3794],Duration of action in assay SC inj T = -30 min,[1]; [21],198
same,Duration of action in assay SC inj T = -60 min,[1]; [21],159
same,Duration of action in assay SC inj T = -120 min,[1]; [21],204
same,Duration of action in assay SC inj T= -240 min,[1]; [21],79
same,body weight change in diet-induced-obese mice,[8],without a concomitant reduction in body weight
same,acute food intake,[9],did not acutely inhibit food intake
same,EC(50),[4]; [18],11.7 nM
same,EC(50),[4]; [19],29.8 nM
same,insulin levels prior to the glucose challenge,[11],significant rise in insulin levels
same,insulinotropic response to an intravenous glucose challenge,[11],significant enhancement of the insulinotropic response
same,Standard IVGTT assay IV infusion (100 pmol/min/kg),[11]; [21],249
same,AUC Change in Insulin Post IVGTT,"[11]; rat, in vivo",173.1+-29.4
same,AUC Change in Insulin Pre IVGTT,"[11]; rat, in vivo",28.8 +-10.7
same,dP/dt (inotropic effect),[12]; [20],prolonged inotropic effect
same,heart rate,[12]; [20],transient relative to GIP
same,mean arterial pressure,[12]; [20],decreased mean arterial pressure
same,systolic and diastolic pressures,"[12]; 80 nmol/kg, remote intravenous dosing, compared to vehicle or GIP",sustained lowering of systolic and diastolic pressures
same,glucose lowering in a diabetic mouse model,[13],pronounced and long-acting effect in lowering glucose
same,Basal Glucose Lowering at 80 nmol/Kg,[2]; AUC180,-9%
same,Basal Glucose Lowering at 80 nmol/Kg,[2]; AUC240,-7 to-20%
same,glucose lowering in normal mice,"[2]; Figures 3A and 3B, NIH/Swiss mice",significantly more efficacious than full length GIP
same,glucose lowering profile,"[2]; Figures 8A and 8B, IP at t=0, 2-hour fasted NIH/Swiss mice",gradually increasing activity that peaks at t=120min
same,OGTT ED50,"[15]; mouse, in vivo",~2 nmol/kg
"urocortin: known cardiac myocyte Gs-coupled receptor activator used as a positive control (DNPSLSIDLTFHLLRTLLELARTQSQRERAEQNRIIFDSV; ends and bridges not checked; UniProt P55089 83-122, looked up)",EC(50),[4]; [19],0.7 nM
